# US8168644B2, “Quinazolinone derivatives as tubulin polymerization inhibitors” (Janssen Pharmaceutica NV, priority 2008, dated 2012)
# Experiments:
# [1] = tested on: Human colon carcinoma HCT116 cells; assay: Anti-proliferative effect, Alamar Blue assay, HCT116; assay type: cell-based; details: 4-day incubation; for IC50: Homo sapiens, HCT-116, 96 h, read-out: HCT116 antiproliferative activity pIC50 (converted)
# Method: Human colon carcinoma HCT116 cells obtained from the ATCC were cultured in McCoy's 5A medium supplemented with 2 mM L-Glutamine, 50 μg/ml gentamicin and 10% heat inactivated fetal calf serum.
# (§1) Resazurin was purchased from Aldrich (Prod. No. 199303). Potassium ferrocyanide, potassium ferricyanide, KH2PO4 and K2HPO4 were purchased from Sigma (Prod. Nos. P9387, P8131, P5655 and P8281, respectively).
# (§2) Potassium Phosphate Buffer 0.1 M (PPB) was made as follows: 2.72 gram KH2PO4 and 13.86 gram K2HPO4 were dissolved in 500 ml milli-Q H2O, the pH was adjusted to pH 7.4 and the volume was brought to 1 liter with milli-Q H2O; the buffer was filter sterilised and stored at room temperature. Resazurin stock solution (PPB-A) was prepared fresh by dissolving 45 mg resazurin in 15 ml PBS. 30 mM potassium ferricyanide (PPB-B) was prepared by dissolving 0.987 gram potassium ferricyanide in 100 ml PPB. 30 mM potassium ferrocyanide (PPB-C) was prepared by dissolving 1.266 gram potassium ferrocyanide in 100 ml PPB.
# (§3) Mixture of PPB-A, PPB-B and PPB-C was prepared by mixing equal volumes of the respective solutions. Resazurin work solution (herein termed “Alamar Blue” solution) was prepared by diluting said mixture 20× (vol/vol) in PPB and filter sterilising; the Alamar Blue solution could be kept at 4° C. for a maximum of 2 weeks.
# (§4) For experiments in 384 wells plates the cells were seeded at a density of 4.5×10^3 cells/ml in Falcon 384-well culture plates (Life Technologies, Merelbeke, Belgium), black with clear bottom, in 45 μl culture medium. Cells were allowed to adhere to plastic for 24 hours. The tested compound was pre-diluted (1/50 in culture medium) and 5 μl pre-diluted compound was added to the wells. Following 4-day incubation, 10 μl of the Alamar Blue solution was added to each well and the cells were further incubated for 4 hours (HCT116) or 24 hours (PC-3) at 37° C. The fluorescence intensity was measured for each well on a Fluorescence plate reader (Fluoroskan, Labsystems, 540 nm excitation and 590 nm emission)
# (§5) The antiproliferative activity was calculated as percentage of remaining viable cells in treated versus control (untreated cells) conditions. Within an experiment, the result for each experimental condition is the mean of 3 replicate wells. When appropriate, the experiments were repeated to establish full concentration-response curves. When appropriate, IC50-values (concentration of the drug, needed to reduce cell growth to 50% of the control) were computed using probit analysis for graded data (Finney, D. J., Probit Analyses, 2nd Ed. Chapter 10, Graded Responses, Cambridge University Press, Cambridge 1962). Herein the effects of test compounds are expressed as pIC50 (the negative log value of the IC50-value) (see Table 3).
# [2] = tested on: Human prostate cancer PC-3 cells; assay: Anti-proliferative effect, Alamar Blue assay, PC-3; assay type: cell-based; parameters: key to PC3 antiproliferative activity pIC50: pIC50 = negative log of IC50 (conc. reducing growth to 50% of control); details: 4-day incubation; for IC50: Homo sapiens, 96 h, read-out: PC3 antiproliferative activity pIC50 (converted)
# Method: Human prostate cancer PC-3 cells obtained from the ATCC were cultured in HAM'S F12 medium supplemented with 1 mM Sodium Pyruvate, 1.5 g/L Sodium Bicarbonate, 50 μg/ml gentamicin, non-essential amino acids and 10% fetal calf serum.
# as §1, §2, §3, §4, §5
# [3] = tested on: human prostate cancer PC3 cells; assay: Eb1 cellular assay (Eb1 Comet assay); assay type: cell-based; details: 1 hour treatment, LAC = concentration where Eb1 foci absent in at least 50% of treated cells
# Method: The Eb1 Comet assay relies on the detection of the Eb1 protein at the plus end of polymerizing microtubules (Mimori-Kiyosue, 2000) using indirect immunofluorescence. Disruption of microtubule dynamics through de-polymerization or stabilization results in a de-localization of Eb1 from the growing microtubule ends and this is visualized by the disappearance of Eb1 containing cytoplasmic foci.
# Briefly, human prostate cancer PC3 cells obtained from the American Type Culture Collection were grown in 96-well plates (Greiner, cat. no. 655090) in HAM's F12 medium as recommended by the provider (ATCC). The cells were treated for 1 hour at 37° C. with compounds dissolved in DMSO (0.6% final DMSO concentration). The culture medium was then removed by aspiration and the cells were fixed by adding cold methanol (−20° C.). After a 15 minutes incubation at −20° C., the cells were washed twice with DPBS (Gibco) containing 0.5% Triton X-100. Mouse Eb1 antibody (BD Transduction Laboratories, cat. no. 610534) was added to the cells (1/250 dilution in DPBS containing 1% BSA) and incubated overnight at room temperature. The antibody was subsequently removed and the cells washed twice with DPBS, 0.5% Triton X-100. Secondary goat anti-mouse antibody conjugated to Alexa 488 fluorescent dye (Molecular Probes) was added at a 1/500 dilution in DPBS, 1% BSA and incubated for 1 hour at 37° C. The cells were washed twice with DPBS, 0.5% Triton X-100 and then DPBS containing 0.5% Triton X-100 and 1/5000 Hoechst 33342 (Molecular Probes) was added. Microscopy based Eb1 foci visualization was carried out using an IN Cell Analyser 1000 (Amersham Biosciences) using a 20× objective. Compound dependent microtubule disruption was visually determined by the disappearance in Eb1 foci. The lowest active concentration (LAC) was determined as the concentration where Eb1 foci were absent in at least 50% of the treated cells. Herein the effects of test compounds are expressed as pLAC (the negative log value of the LAC-value) (see Table 3).
# [4] = tested on: α-β-Tubulin; assay: α-β-Tubulin polymerization assay; assay type: biochemical; parameters: key: a compound showing 0 to 50% inhibition at 20 μM is reported as score 1; Score 2 compounds are defined as compound showing more than 50% inhibition at 20 μM and less than 50% inhibition at 5 μM; a compound showing more than 50% inhibition at 5 μM is reported as score 3; details: inhibition of polymerization at 20 μM and 5 μM, reported as score
# Method: The tubulin polymerization assay is an adaptation of an assay originally described by Bonne, D. et al. (J. Biol. Chem., 1985, 260:2819-25). The assay kit was purchased from Cytoskeleton, Inc. (catalogue number BK011) and the assay was performed as described by the supplier with the following modifications. The assay was run in a 384-well black Proxiplate (Perkin Elmer) and volumes were adapted accordingly. The reactions were carried out in a final volume of 10 μl. Compounds were added to 25 μl of the reaction mix in 96-well PP plates (Corning) on ice and 10 μl of this mixture was dispensed into duplicates of the 384-well Proxiplates pre-warmed to 37° C. in a Fluoroskan Ascent plate reader (Thermo Scientific). Fluorescence measurements were taken every minute for one hour. The maximum slope of each well was determined (linear regression through 4 consecutive points) and polymerization was calculated as a percentage of polymerization observed in the absence of compound. Compounds were first measured at a concentration of 20 μM and then at 5 μM for those showing more than 50% inhibition at 20 μM as compared to the polymerization observed in the absence of compound. Results are reported in Table F-2 as scores defined as: a compound showing 0 to 50% inhibition at 20 μM is reported as score 1; a compound showing more than 50% inhibition at 5 μM is reported as score 3.
Structure (SMILES),HCT116 antiproliferative activity pIC50 [1],PC3 antiproliferative activity pIC50 [2],Eb1 pLAC [3],tubulin polymerization score [4],IC50 [1] [nM],melting point [°C],IC50 [2] [nM]
CCN1Cc2ccc(C(C)(C#N)Cc3cc(Cl)cc(Cl)c3)cc2NC1=O (stereo not drawn) [Compound 20],6.4,6.2,6.5,,,,
CN1Cc2ccc([C@@](C)(C#N)Cc3cccc(C#N)c3)cc2NC1=O [Compound 27],7.1,6.8,6.5,3 (a compound showing more than 50% inhibition at 5 μM is reported as score 3),,,
CCN1Cc2ccc([C@](C)(C#N)[C@@H]3CCc4c(Cl)ccnc43)cc2NC1=O [Compound 13],,,,,79.4,226,100
CCN1Cc2ccc(C(C#N)(CC)Cc3nc(OC)cc(OC)n3)cc2NC1=O (stereo not drawn) [Compound 30],6.4,6.0,6.5,3 (a compound showing more than 50% inhibition at 5 μM is reported as score 3),,,
CCN1Cc2ccc(C(C)(C#N)Cc3cccc(F)c3)cc2NC1=O (stereo not drawn) [Compound 24],6.8,6.6,,,,,
CCN1Cc2cc(F)c(C(C)(C#N)Cc3nc(OC)cc(OC)n3)cc2NC1=O (stereo not drawn) [Compound 25],6.3,6.3,6.5,3 (a compound showing more than 50% inhibition at 5 μM is reported as score 3),,,
CCN1Cc2ccc(C(C)(C#N)Cc3ccccc3)cc2NC1=O (stereo not drawn) [Compound 16],6.2,5.9,6,2,,,
CCN1Cc2ccc([C@@](C)(C#N)[C@@H]3CCc4c(Cl)ccnc43)cc2NC1=O [Compound 14],,,,,501,,1260
CCN1Cc2ccc(C(C#N)(CC)Cc3cccc(C#N)c3)cc2NC1=O (stereo not drawn) [Compound 2],,,7,3 (a compound showing more than 50% inhibition at 5 μM is reported as score 3),316,,316
CCN1Cc2ccc(C(C)(C#N)Cc3cccc(C#CCO)c3)cc2NC1=O (stereo not drawn) [Compound 11],,,7,3 (a compound showing more than 50% inhibition at 5 μM is reported as score 3),316,,398
CCN1Cc2ccc(C(C)(C#N)Cc3cccc(C#N)n3)cc2NC1=O (stereo not drawn) [Compound 21],6.3,6.1,5.5,2,,,
CCN1Cc2ccc(C(C)(C#N)CCOc3ccc(C#N)cc3)cc2NC1=O (stereo not drawn) [Compound 15],,,,,100,,200
CCN1Cc2ccc([C@](C)(C#N)Cc3ccccc3)cc2NC1=O [Compound 4],,,,3 (a compound showing more than 50% inhibition at 5 μM is reported as score 3),200,124,501
CCN1Cc2ccc(C(C)(C#N)Cc3cccc(C)c3)cc2NC1=O (stereo not drawn) [Compound 22],6.7,6.4,,,,,
CCN1Cc2ccc(C(C)(C#N)CNCc3ccc(C#N)cc3)cc2NC1=O (stereo not drawn) [Compound 12],,,,,631,,1260
CCN1Cc2ccc(C(C)(C#N)Cc3cccc(C#CCOC)c3)cc2NC1=O (stereo not drawn) [Compound 36],6.7,6.6,7,3 (a compound showing more than 50% inhibition at 5 μM is reported as score 3),,,
CN1Cc2ccc(C(C)(C#N)Cc3cccc(C#N)c3)cc2NC1=O (stereo not drawn) [Compound 28],6.8,6.5,6.5,3 (a compound showing more than 50% inhibition at 5 μM is reported as score 3),,,
CCN1Cc2cc(F)c(C(C)(C#N)Cc3cccc(C#N)c3)cc2NC1=O (stereo not drawn) [Compound 26],6.6,6.3,6.5,3 (a compound showing more than 50% inhibition at 5 μM is reported as score 3),,,
CCN1Cc2ccc(C(C)(C#N)Cc3nc(OC)cc(OC)n3)cc2NC1=O (stereo not drawn) [Compound 18],6.6,6.6,,3 (a compound showing more than 50% inhibition at 5 μM is reported as score 3),,,
CCN1Cc2ccc(C(C)(C#N)Cc3cc(OC)cc(OC)c3)cc2NC1=O (stereo not drawn) [Compound 19],6.4,6.2,6.5,3 (a compound showing more than 50% inhibition at 5 μM is reported as score 3),,,
CCN1Cc2ccc(C(C)(C#N)Cc3cccc(C#N)c3)cc2NC1=O (stereo not drawn) [Compound 17],6.8,6.6,,3 (a compound showing more than 50% inhibition at 5 μM is reported as score 3),,,
CCN1Cc2ccc(C(C)(C#N)Cc3nc4ccccc4s3)cc2NC1=O (stereo not drawn) [Compound 23],6.4,6.3,,,,,
